Data as given in publication PMC8143291, “Cytotoxicity and Microbicidal Activity of Commonly Used Organic Solvents: A Comparative Study and Application to a Standardized Extract from Vaccinium macrocarpon” (Toxics, 2021).

Legend:
[1] = test system: HaCaT (immortalized human keratinocytes); test: MTT dye-reduction cytotoxicity assay (ISO 10993-5); type: cell-based; conditions: solvent alone, n = 3; for IC50 (CI 95%): 72 h incubation; for MTC (maximum tolerated concentration): 72 h, at least 70% of cells viable
From the text: The cell lines utilized in this study included the human tumor lines A-375 (malignant melanoma) and A-431 (non-melanoma epidermoid squamous skin carcinoma) as well as the models for non-tumorigenic cells—HaCaT (immortalized human keratinocytes) and CCL-1^TM (transformed mouse fibroblasts, NCTC clone 929). The first three cell lines were obtained from CLS Cell Lines Service (GmbH, Eppelheim, Germany). CCL-1^TM was purchased from the American Type Culture Collection (ATCC, Manassas, VA, USA). Cells were maintained in a controlled environment—sterile cell culture flasks in a CO2 incubator Panasonic MCO-18AC (Panasonic Healthcare co., ltd, Oizumi-Machi, Japan) at 37 °C and a humidified atmosphere containing 5% CO2. CCL-1 was cultured in MEM with 10% heat-inactivated horse serum and 2 mM L-glutamine, and the cell culture medium for the rest of the cell lines was DMEM-HG with 4.5 g/L glucose with the addition of 10% heat-inactivated fetal bovine serum and 4 mM L-glutamine. Pen/strep (concentration of penicillin G sodium 10^5 Units/L and of streptomycin sulfate 100 mg/L) was added to both culture media. The cell lines were maintained as an adherent monolayer in a log phase. The cells were sub-cultivated about 1–3 times per week after the monolayer reached 80–90% confluence. The medium was removed from the flask, and the cell monolayer was washed with 3–5 mL PBS. The cells were incubated with 0.05% EDTA in PBS for 8–10 min, followed by the next step where all cell lines were subjected to enzyme cell detachment. HaCaT and CCL-1 monolayers were detached with 1 mL solution of trypsin/EDTA (0.1%/0.05% for HaCaT and 0.25% (w/v)/0.53 mM for CCL-1) and incubated for 2–5 min at 37 °C (for HaCaT) or at room temperature (for CCL-1 cells), whereas Accutase® was used for A-375 and A-431 lines. The incubation lasted until the separation and dispersion of the cells in the monolayer were observed using light microscopy. In the end, all cell lines were resuspended in 10 mL medium and centrifuged for 3 min at 300× g. The cell pellet was resuspended in fresh medium and sub-cultivated at a seeding density of 1.0 × 10^4 cells/cm^2.
The MTT test was performed in order to determine the median inhibitory (IC50) and MTC concentrations of the solvents and PAC according to Annex C, ISO 10993-5 [2, 21]. Briefly, 100 µL of the cell suspension (1 × 10^5 cells/mL) were seeded per well in 96-well plates with a flat bottom. The cells were incubated for 24 h, allowing them to enter the log phase of their growth. On the 24th hour, the cells were treated with the solvents or CystiCran® solutions in concentrations ranging between 0.004% and 2% volume fraction (v/v) and incubated further for 72 h. The incubation periods are following the recommendations of the FDA guide for the use of ISO 10993-1 [1]. At the end of the incubation period, 10 µL of an MTT solution (5 mg/mL) were added to each well, and the plates were kept at 37 °C for 2 hours. Thereafter, the medium was aspirated, and the formed formazan crystals were dissolved in 100 μL/well of 2-propanol supplemented with 5% formic acid. The same solvent was used as a blank. Untreated cells were considered as a negative control. […] The absorption was measured at 540 nm (reference filter at 690 nm) on a microplate reader ELx800 (BioTek Instruments, Inc., Winooski, VT, Winooski, VT, USA).
The IC50 values from the MTT assay were evaluated with a non-linear regression analysis (Curve fit, GraphPad Prizm 6.01 software, GraphPad Software Inc., San Diego, CA, USA) using sigmoidal concentration–response curves. The cell viability is presented as a percentage of the untreated control. At least four wells were seeded for every concentration. Three independent assays were performed (n = 3).

[2] = test system: E. coli ATCC 35218; test: Broth microdilution MIC/MBC; type: cell-based, Escherichia coli; conditions: 24 h exposure, v/v, n = 3
From the text: The bacterial strains used for AST of the solvents included: Staphylococcus aureus (ATCC 29213), Staphylococcus aureus—MRSA (NBIMCC 8327—resistant to methicillin and oxacillin, National Bulgarian Collection for Industrial Microorganisms and Cell Cultures, Sofia, Bulgaria), Streptococcus pyogenes (SAIMC 10535, Collection of the Stephan Angeloff Institute of Microbiology, Sofia, Bulgaria), Enterococcus faecalis (ATCC 29212), Escherichia coli (ATCC 35218), Pseudomonas aeruginosa (ATCC 27853), and Yersinia enterocolitica (IP864 O:3, Collection of Institut Pasteur, Paris, France). The selected strains are the most often investigated ones in the AST research studies in correspondence with the standard ISO 20776-1 Part 1: Reference method for testing the in vitro activity of antimicrobial agents against rapidly growing aerobic bacteria involved in infectious diseases. The antimycotic activity was tested on Candida albicans (CBS 562, Utrecht, The Netherlands). The strains S. aureus, MRSA, E. coli and E. faecalis were grown on Mueller–Hinton broth/agar (MHB/MHA); S. pyogenes, P. aeruginosa, Y. enterocolitica and C. albicans were grown on brain heart infusion (BHI) broth/agar; E. coli was also grown on Luria–Bertani broth/agar (LBB/LBA).
The minimum inhibitory concentration (MIC) for each solvent was estimated by the broth microdilution method (BMD) in 96-well microplates, following ISO 20776/1-2006 [3] and CLSI protocols. Briefly, a standardized bacterial inoculum was prepared from each bacterial species by suspending 3–4 colonies from a pure culture into 4 mL sterile saline. The turbidity of the inocula was adjusted to McFarland 0.5 (1.0 × 10^8 CFU/mL, λ = 600 nm), and 50 µL were resuspended in 10 mL of the appropriate culture medium for each strain. The bacterial inocula were added to microtiter trays containing equivalent volumes of medium loaded with the relevant solvent in concentrations varying from 0.025 to 25% volume fraction. The final volume of each sample was 100 µL/well. The plates were incubated at 37 °C for 24 h. The pure culture medium served as a negative control. Every MIC was evaluated visually as the lowest concentration without visible growth. […] MBC was defined as the lowest compound’s concentration reducing the colony growth of the initial bacterial inoculum by ≥ 99.9%.

Compound	IC50 (CI 95%) [1]	MBC ([2]; in LBB) [%]	MIC ([2]; in LBB) [%]	MBC ([2]; in MHB) [%]	MIC ([2]; in MHB) [%]	MTC (maximum tolerated concentration) [1]
C[S+](C)[O-] [DMSO, dimethyl sulfoxide]	1.25 % (v/v)	>25	12.5	>25	12.5	
CCO [EtOH, ethanol]	> 2 % (v/v)	>25	>25	>25	>25	> 2 % (v/v)
polyethylene glycol of average molecular weight 400 [PEG-400]		>25	25	>25	>25	0.41 % (v/v)
